Measurements from PMC5218480 (PLoS ONE, 2017).

Test system: MV-4-11 cells
Assay: Gene expression microarray analysis (Affymetrix PrimeView) and GSEA
Assay type: cell-based, human
Set-up: RFU PODN (11730768_x_at) / Fold change /veh PODN (11730768_x_at) / RFU LINC00158 (11744669_a_at) / Fold change /veh LINC00158 (11744669_a_at) / RFU DUSP10 (11751237_a_at) / Fold change /veh DUSP10 (11751237_a_at) / RFU ID3 (11757404_x_at) / Fold change /veh ID3 (11757404_x_at) / RFU PLEKHG5 (11737974_s_at) / Fold change /veh PLEKHG5 (11737974_s_at) / RFU LRRC4B (11730491_at) / Fold change /veh LRRC4B (11730491_at) / RFU GIMAP4 (11747438_a_at) / Fold change /veh GIMAP4 (11747438_a_at) / RFU KRT8 (11758183_x_at) / Fold change /veh KRT8 (11758183_x_at) / RFU CNN1 (11734310_a_at) / Fold change /veh CNN1 (11734310_a_at) / RFU VPS37D (11726825_at) / Fold change /veh VPS37D (11726825_at) / RFU C10orf10 (11716522_x_at) / Fold change /veh C10orf10 (11716522_x_at) / RFU KIR2DL2 /// KIR2DL4 /// KIR2DL5A /// KIR2DL5B /// KIR2DS1 /// KIR2DS2 /// KIR2DS3 /// KIR2DS4 /// KIR3DL3 /// KIR3DL3 /// KIR3DS1 (11738374_at) / Fold change /veh KIR2DL2 /// KIR2DL4 /// KIR2DL5A /// KIR2DL5B /// KIR2DS1 /// KIR2DS2 /// KIR2DS3 /// KIR2DS4 /// KIR3DL3 /// KIR3DL3 /// KIR3DS1 (11738374_at) / RFU C1QL1 (11718748_at) / Fold change /veh C1QL1 (11718748_at) / RFU TMPRSS4 (11747572_a_at) / Fold change /veh TMPRSS4 (11747572_a_at) / RFU HAMP (11756126_x_at) / Fold change /veh HAMP (11756126_x_at) / RFU RNFT2 (11725882_a_at) / Fold change /veh RNFT2 (11725882_a_at) / RFU NR4A2 (11747474_a_at) / Fold change /veh NR4A2 (11747474_a_at) / RFU ABCC12 (11746883_a_at) / Fold change /veh ABCC12 (11746883_a_at) / RFU TMEM136 (11760407_x_at) / Fold change /veh TMEM136 (11760407_x_at) / RFU CLDN22 /// WWC2 (11732394_at) / Fold change /veh CLDN22 /// WWC2 (11732394_at) / RFU HLA-DPB1 (11760878_x_at) / Fold change /veh HLA-DPB1 (11760878_x_at) / RFU SPINT1 (11716480_a_at) / Fold change /veh SPINT1 (11716480_a_at) / RFU GAP43 (11754022_s_at) / Fold change /veh GAP43 (11754022_s_at) / RFU A4GNT (11735810_at) / Fold change /veh A4GNT (11735810_at) / RFU PRB3 (11715151_x_at) / Fold change /veh PRB3 (11715151_x_at) / RFU TUBB4B (11761932_at) / Fold change /veh TUBB4B (11761932_at) / RFU CAPN14 (11732068_a_at) / Fold change /veh CAPN14 (11732068_a_at) / RFU TMCC2 (11721928_a_at) / Fold change /veh TMCC2 (11721928_a_at) / RFU IRGQ (11745062_a_at) / Fold change /veh IRGQ (11745062_a_at) / RFU FAM174B (11720279_a_at) / Fold change /veh FAM174B (11720279_a_at) / RFU TMPRSS4 (11748680_a_at) / Fold change /veh TMPRSS4 (11748680_a_at) / RFU FAM212B (11763350_a_at) / Fold change /veh FAM212B (11763350_a_at) / RFU PLEKHG5 (11743358_a_at) / Fold change /veh PLEKHG5 (11743358_a_at) / RFU ZSCAN30 (11745921_a_at) / Fold change /veh ZSCAN30 (11745921_a_at) / RFU CMKLR1 (11741424_a_at) / Fold change /veh CMKLR1 (11741424_a_at) / RFU LOC101060620 /// MAPK8IP1 (11723275_at) / Fold change /veh LOC101060620 /// MAPK8IP1 (11723275_at) / RFU SPTSSB (11747773_x_at) / Fold change /veh SPTSSB (11747773_x_at) / RFU PRSS12 (11739890_at) / Fold change /veh PRSS12 (11739890_at) / RFU BIN1 (11741810_x_at) / Fold change /veh BIN1 (11741810_x_at) / RFU WNT11 (11732464_a_at) / Fold change /veh WNT11 (11732464_a_at) / RFU C10orf10 (11716521_a_at) / Fold change /veh C10orf10 (11716521_a_at) / RFU C5orf56 (11738089_at) / Fold change /veh C5orf56 (11738089_at) / RFU CYB561 (11721691_x_at) / Fold change /veh CYB561 (11721691_x_at) / RFU ANKRD19P (11752326_a_at) / Fold change /veh ANKRD19P (11752326_a_at) / RFU OR2T12 /// OR2T33 /// OR2T8 (11738714_s_at) / Fold change /veh OR2T12 /// OR2T33 /// OR2T8 (11738714_s_at) / RFU VCAN (11748164_a_at) / Fold change /veh VCAN (11748164_a_at) / RFU JSRP1 (11732532_at) / Fold change /veh JSRP1 (11732532_at) / RFU KRTAP10-11 (11738290_x_at) / Fold change /veh KRTAP10-11 (11738290_x_at) / RFU MYO3A (11730013_a_at) / Fold change /veh MYO3A (11730013_a_at) / RFU EBF3 (11725865_a_at) / Fold change /veh EBF3 (11725865_a_at) / RFU CAMK2N1 (11719241_x_at) / Fold change /veh CAMK2N1 (11719241_x_at) / RFU C5orf56 (11738088_a_at) / Fold change /veh C5orf56 (11738088_a_at) / RFU OLFML3 (11715873_a_at) / Fold change /veh OLFML3 (11715873_a_at) / RFU LOC100653217 /// NTM (11731650_a_at) / Fold change /veh LOC100653217 /// NTM (11731650_a_at) / RFU MAPK11 (11762145_a_at) / Fold change /veh MAPK11 (11762145_a_at) / RFU FIZ1 (11724087_x_at) / Fold change /veh FIZ1 (11724087_x_at) / RFU OASL (11726364_x_at) / Fold change /veh OASL (11726364_x_at) / RFU SOX15 (11748057_x_at) / Fold change /veh SOX15 (11748057_x_at) / RFU CD79A (11719716_a_at) / Fold change /veh CD79A (11719716_a_at) / RFU HIST1H1D (11736915_at) / Fold change /veh HIST1H1D (11736915_at) / RFU CASKIN2 (11723855_a_at) / Fold change /veh CASKIN2 (11723855_a_at) / RFU LOC730098 (11760151_x_at) / Fold change /veh LOC730098 (11760151_x_at) / RFU OR4N2 (11742367_at) / Fold change /veh OR4N2 (11742367_at) / RFU PRRT2 (11749266_a_at) / Fold change /veh PRRT2 (11749266_a_at) / RFU SNX32 (11753110_a_at) / Fold change /veh SNX32 (11753110_a_at) / RFU CDHR5 (11726645_a_at) / Fold change /veh CDHR5 (11726645_a_at) / RFU RCAN1 (11760418_a_at) / Fold change /veh RCAN1 (11760418_a_at) / RFU FAM167A (11723789_a_at) / Fold change /veh FAM167A (11723789_a_at) / RFU FAM26E (11764081_at) / Fold change /veh FAM26E (11764081_at) / RFU ISYNA1 (11749810_s_at) / Fold change /veh ISYNA1 (11749810_s_at) / RFU ACY1 (11761880_at) / Fold change /veh ACY1 (11761880_at) / RFU 11764098_at / Fold change /veh 11764098_at / RFU SAMD14 (11745864_x_at) / Fold change /veh SAMD14 (11745864_x_at) / RFU NPB (11741838_a_at) / Fold change /veh NPB (11741838_a_at) / RFU TMPRSS6 (11731388_a_at) / Fold change /veh TMPRSS6 (11731388_a_at) / RFU KRTAP10-2 (11738614_at) / Fold change /veh KRTAP10-2 (11738614_at) / RFU ARHGAP8 /// PRR5-ARHGAP8 (11727945_x_at) / Fold change /veh ARHGAP8 /// PRR5-ARHGAP8 (11727945_x_at) / RFU KRTAP5-7 /// NADSYN1 (11734609_at) / Fold change /veh KRTAP5-7 /// NADSYN1 (11734609_at) / RFU RASL12 (11751679_a_at) / Fold change /veh RASL12 (11751679_a_at) / RFU CDKN2B (11736163_a_at) / Fold change /veh CDKN2B (11736163_a_at) / RFU PRF1 (11729649_at) / Fold change /veh PRF1 (11729649_at) / RFU, ZNF638 /// ZNF638-IT1 / Fold change vs veh, ZNF638 /// ZNF638-IT1 / RFU, PANK3 / Fold change vs veh, PANK3 / RFU, SH3YL1 / Fold change vs veh, SH3YL1 / RFU, ZEB2 / Fold change vs veh, ZEB2 / RFU, NRIP1 / Fold change vs veh, NRIP1 / RFU, PTTG1IP / Fold change vs veh, PTTG1IP / RFU, CAPN2 / Fold change vs veh, CAPN2 / RFU, MED14 / Fold change vs veh, MED14 / RFU, SNORA58 / Fold change vs veh, SNORA58 / RFU, C1orf63 / Fold change vs veh, C1orf63 / RFU, LRRFIP1 / Fold change vs veh, LRRFIP1 / RFU, NDUFAF7 / Fold change vs veh, NDUFAF7 / RFU, SLC12A2 / Fold change vs veh, SLC12A2 / RFU, IBTK / Fold change vs veh, IBTK / RFU, ESF1 / Fold change vs veh, ESF1 / Fold change vs veh, TMEM50B / RFU, TAOK1 / Fold change vs veh, TAOK1 / RFU, ACBD3 / Fold change vs veh, ACBD3 / RFU, TMA16 / Fold change vs veh, TMA16 / RFU, RWDD3 / Fold change vs veh, RWDD3 / RFU, BCAT1 / Fold change vs veh, BCAT1 / RFU, EDEM3 / Fold change vs veh, EDEM3 / RFU, TMEM33 / Fold change vs veh, TMEM33 / RFU, WDR75 / Fold change vs veh, WDR75 / RFU, AHCTF1 / Fold change vs veh, AHCTF1 / RFU, TFRC / Fold change vs veh, TFRC / RFU, ZDHHC17 / Fold change vs veh, ZDHHC17 / RFU, NOM1 / Fold change vs veh, NOM1 / RFU, ARL8B / Fold change vs veh, ARL8B / RFU, ZBTB11 / Fold change vs veh, ZBTB11 / RFU, TAMM41 / Fold change vs veh, TAMM41 / RFU, KIAA1704 /// LOC100996395 / Fold change vs veh, KIAA1704 /// LOC100996395 / RFU, ING1 / Fold change vs veh, ING1 / RFU, TRMT61B / Fold change vs veh, TRMT61B / RFU, FUBP3 / Fold change vs veh, FUBP3 / RFU, TP53 / Fold change vs veh, TP53 / RFU, TNKS2 / Fold change vs veh, TNKS2 / RFU, ZFP14 / Fold change vs veh, ZFP14 / RFU, ACTR2 / Fold change vs veh, ACTR2 / RFU, PPP3R1 / Fold change vs veh, PPP3R1 / RFU, PIK3R1 / Fold change vs veh, PIK3R1 / RFU, HNRNPA1 / Fold change vs veh, HNRNPA1 / RFU, RNF170 / Fold change vs veh, RNF170 / RFU, ZNF28 / Fold change vs veh, ZNF28 / RFU, RNGTT / Fold change vs veh, RNGTT / RFU, OGT / Fold change vs veh, OGT / RFU, BRD1 / Fold change vs veh, BRD1 / RFU, MARS / Fold change vs veh, MARS / RFU, ZNF655 / Fold change vs veh, ZNF655 / RFU, FAHD1 / Fold change vs veh, FAHD1 / RFU, BDP1 / Fold change vs veh, BDP1 / RFU, LRRCC1 / Fold change vs veh, LRRCC1 / RFU, ARID1A / Fold change vs veh, ARID1A / RFU, ZNF146 / Fold change vs veh, ZNF146 / RFU, ZNF330 / Fold change vs veh, ZNF330 / RFU, GPN3 / Fold change vs veh, GPN3 / RFU, C9orf123 / Fold change vs veh, C9orf123 / RFU, N4BP2L2 / Fold change vs veh, N4BP2L2 / RFU, ARFIP1 / Fold change vs veh, ARFIP1 / RFU, FAM179B / Fold change vs veh, FAM179B / RFU, BCL10 / Fold change vs veh, BCL10 / RFU, UHRF1BP1L / Fold change vs veh, UHRF1BP1L / RFU, BET1 / Fold change vs veh, BET1 / RFU, CNOT2 / Fold change vs veh, CNOT2 / RFU, ZNF268 / Fold change vs veh, ZNF268 / Fold change vs veh, ZNF507 / RFU, DGCR2 / Fold change vs veh, DGCR2 / RFU, WDSUB1 / Fold change vs veh, WDSUB1 / Fold change vs veh, HSP90B1 /// MIR3652 / RFU, ADSS / Fold change vs veh, ADSS / RFU, GK / Fold change vs veh, GK / RFU, ZNF148 / Fold change vs veh, ZNF148 / RFU, TAF9 / Fold change vs veh, TAF9 / RFU, SLC1A5 / Fold change vs veh, SLC1A5 / RFU, SLMO2 / Fold change vs veh, SLMO2 / RFU, ABCC4 / Fold change vs veh, ABCC4 / RFU, LOC101060439 /// RAP1B / Fold change vs veh, LOC101060439 /// RAP1B / RFU, RFX7 / Fold change vs veh, RFX7 / RFU, GTPBP10 / Fold change vs veh, GTPBP10 / RFU, CNEP1R1 / Fold change vs veh, CNEP1R1 / RFU, BIVM-ERCC5 /// ERCC5 / Fold change vs veh, BIVM-ERCC5 /// ERCC5 / RFU, ILF3 / Fold change vs veh, ILF3 / RFU 11762660_at / Fold change /veh 11762660_at / RFU VCAN (11757783_s_at) / Fold change /veh VCAN (11757783_s_at) / RFU DDX43 (11728927_at) / Fold change /veh DDX43 (11728927_at) / RFU KRT8 (11758188_x_at) / Fold change /veh KRT8 (11758188_x_at) / RFU NKD1 (11759106_at) / Fold change /veh NKD1 (11759106_at) / RFU SRD5A1 (11742802_a_at) / Fold change /veh SRD5A1 (11742802_a_at) / RFU TPSAB1 /// TPSB2 (11721975_s_at) / Fold change /veh TPSAB1 /// TPSB2 (11721975_s_at) / RFU GSTM3 (11746129_a_at) / Fold change /veh GSTM3 (11746129_a_at) / RFU IL23R (11737362_x_at) / Fold change /veh IL23R (11737362_x_at) / RFU TMEM51 (11727254_a_at) / Fold change /veh TMEM51 (11727254_a_at) / RFU PIWIL2 (11732686_x_at) / Fold change /veh PIWIL2 (11732686_x_at) / RFU ORM1 (11744905_x_at) / Fold change /veh ORM1 (11744905_x_at) / RFU CCDC152 (11743942_at) / Fold change /veh CCDC152 (11743942_at) / RFU ECM1 (11717891_a_at) / Fold change /veh ECM1 (11717891_a_at) / RFU IL23R (11748794_a_at) / Fold change /veh IL23R (11748794_a_at) / RFU TNFAIP8L3 (11732012_x_at) / Fold change /veh TNFAIP8L3 (11732012_x_at) / RFU MBOAT4 (11741988_at) / Fold change /veh MBOAT4 (11741988_at) / RFU 11764193_at / Fold change /veh 11764193_at / RFU TMEM53 (11763286_at) / Fold change /veh TMEM53 (11763286_at) / RFU MAGEB2 (11727129_at) / Fold change /veh MAGEB2 (11727129_at) / RFU TMEM200A (11744735_a_at) / Fold change /veh TMEM200A (11744735_a_at) / RFU CCDC152 (11751479_a_at) / Fold change /veh CCDC152 (11751479_a_at) / RFU FAM211A (11726209_a_at) / Fold change /veh FAM211A (11726209_a_at) / RFU RGS16 (11746705_a_at) / Fold change /veh RGS16 (11746705_a_at) / RFU VCAN (11755009_s_at) / Fold change /veh VCAN (11755009_s_at) / RFU RHOB (11743442_s_at) / Fold change /veh RHOB (11743442_s_at) / RFU RGS16 (11720943_a_at) / Fold change /veh RGS16 (11720943_a_at) / RFU RGS16 (11720944_at) / Fold change /veh RGS16 (11720944_at) / RFU, VPS4B / Fold change vs veh, VPS4B / RFU, CREB1 / Fold change vs veh, CREB1 / RFU, DNAJC13 / Fold change vs veh, DNAJC13 / RFU, GNAQ / Fold change vs veh, GNAQ / RFU, CDK5R1 / Fold change vs veh, CDK5R1 / RFU, ZRANB3 / Fold change vs veh, ZRANB3 / RFU, CUL4A / Fold change vs veh, CUL4A / RFU, CCNY / Fold change vs veh, CCNY / RFU, UFL1 / Fold change vs veh, UFL1 / RFU, COG3 / Fold change vs veh, COG3 / RFU, DIAPH2 / Fold change vs veh, DIAPH2 / RFU, SKA2 / Fold change vs veh, SKA2 / RFU, AFF3 / Fold change vs veh, AFF3 / RFU, LMF1 / Fold change vs veh, LMF1 / RFU, IPO11 / Fold change vs veh, IPO11 / RFU, DFFB / Fold change vs veh, DFFB / RFU, FOXP1 / Fold change vs veh, FOXP1 / RFU, CARD8 / Fold change vs veh, CARD8 / RFU, STRN3 / Fold change vs veh, STRN3 / RFU, ADK / Fold change vs veh, ADK / RFU, RASSF2 / Fold change vs veh, RASSF2 / RFU, WIPF1 / Fold change vs veh, WIPF1 / RFU, LARP1B / Fold change vs veh, LARP1B / RFU, RASA1 / Fold change vs veh, RASA1 / RFU, RB1 / Fold change vs veh, RB1 / RFU, PPFIA1 / Fold change vs veh, PPFIA1 / RFU, MAT2A / Fold change vs veh, MAT2A / RFU, CCT5 / Fold change vs veh, CCT5 / RFU, WDR92 / Fold change vs veh, WDR92 / RFU, CUX1 / Fold change vs veh, CUX1 / RFU, TTC7A / Fold change vs veh, TTC7A / RFU, TMEM135 / Fold change vs veh, TMEM135 / RFU, DEPTOR / Fold change vs veh, DEPTOR / RFU, CPM / Fold change vs veh, CPM / RFU, DNAJB6 / Fold change vs veh, DNAJB6 / RFU, CACNA2D3 / Fold change vs veh, CACNA2D3 / RFU, DTX4 / Fold change vs veh, DTX4 / RFU, TFCP2 / Fold change vs veh, TFCP2 / RFU, GMCL1 /// GMCL1P1 / Fold change vs veh, GMCL1 /// GMCL1P1 / RFU, AEBP2 / Fold change vs veh, AEBP2 / RFU, SNHG1 /// SNORD22 /// SNORD25 /// SNORD26 /// SNORD27 /// SNORD28 /// SNORD29 /// SNORD31 / Fold change vs veh, SNHG1 /// SNORD22 /// SNORD25 /// SNORD26 /// SNORD27 /// SNORD28 /// SNORD29 /// SNORD31 / Fold change (Aza/veh), C12orf56 (ProbeSet 11735607_a_at) / Fold change (ACY-1035/veh), C12orf56 (ProbeSet 11735607_a_at) / Fold change (Aza/veh), FGFR1OP (ProbeSet 11751329_s_at) / Fold change (ACY-1035/veh), FGFR1OP (ProbeSet 11751329_s_at) / Fold change (Aza/veh), VPS36 (ProbeSet 11739960_a_at) / Fold change (ACY-1035/veh), VPS36 (ProbeSet 11739960_a_at) / RFU SYPL1 (11715823_x_at) / Fold change /veh SYPL1 (11715823_x_at) / RFU IGFBP7 (11715501_s_at) / Fold change /veh IGFBP7 (11715501_s_at) / RFU REEP3 (11722064_at) / Fold change /veh REEP3 (11722064_at) / RFU IGLL1 (11728026_x_at) / Fold change /veh IGLL1 (11728026_x_at): dose or concentration left out as unconfirmed
Details: ProbeSet 11720566_at; LIST D

**Q.** For `Nc1ccc(-c2cccs2)cc1NC(=O)c1ccc2c(c1)cc(C1CC1)n2CCN1CCOCC1` [ACY-1035], which “RFU, BCAT1” value is on record?
**A.** The value was 827.78 RFU.
